# Experimental data as given in US20220257595A1, “MACITENTAN FOR USE IN TREATING PORTOPULMONARY HYPERTENSION” (ACTELION PHARMACEUTICALS LTD, priority 2019, published 2022).
# System: patients with PoPH
# Experiment: PORTICO safety: liver test and hemoglobin laboratory abnormalities
# Format: in vivo
# Text: For the evaluation of treatment-emergent safety endpoints in the DB phase, the observation period for each individual subject started at the time of the first administration of macitentan or placebo and ended with the start of OL treatment or 30 days after DB treatment discontinuation (whichever occurred first). The safety variables listed below apply to the DB treatment-emergent period and the macitentan treatment-emergent period. The DB treatment-emergent period was defined as the period from the DB treatment start date up to the EOT-DB+30 days or to the EOT-DB for patients entering OL. The macitentan treatment-emergent period was defined as the period from the first intake of macitentan up to end of macitentan treatment (EOMT)+30 days. EOMT was defined as EOT-DB (for patient who received macitentan only in the DB period) or EOT-OL when applicable. For patients entering OLE, the EOMT is EOT-OL. • Treatment-emergent AEs • Treatment-emergent deaths • Treatment-emergent serious adverse events (SAEs) • AEs leading to premature discontinuation of study treatment • Occurrence of post-baseline LFT (ALT and/or AST) abnormalities, classified as: • ≥3×ULN; • ≥5×ULN; • ≥8×ULN; • ≥3×ULN and <5×ULN; • […] and <8×ULN. • Occurrence of post-baseline ALT and/or AST abnormality 3×ULN and concomitant (i.e., at the same time) total bilirubin ≥2×ULN • Occurrence of post-baseline ALT and/or AST abnormality ≥3×ULN and concomitant (i.e., at the same time) total bilirubin ≥2×ULN and increased as compared to baseline • Occurrence of hemoglobin abnormalities, classified as: • ≤80 g/L, • >80 and ≤100 g/L, • decrease from baseline ≥20 g/L and <50 g/L, • decrease from baseline ≥50 g/L, • <100 g/L and concurrent (i.e., at the same time) decrease from baseline ≥20 g/L. • Other treatment-emergent marked laboratory abnormalities • Change from baseline/macitentan baseline to EOT-DB/EOMT in vital signs • Change from baseline/macitentan baseline to EOT-DB/EOMT in laboratory variables • Change from baseline/macitentan baseline to EOT-DB/EOMT in Child-Pugh classification • Change from baseline/macitentan baseline to EOT-DB/EOMT in MELD score
# Treatment-emergent liver test and hemoglobin abnormalities are those that occurred during the DB treatment-emergent (SS) and macitentan treatment-emergent (MTS) periods that were not present at baseline.
# For post-baseline liver test abnormalities, the following events are considered: • ALT and/or AST ≥3×ULN, • ALT and/or AST ≥5×ULN, • ALT and/or AST ≥8×ULN, • ALT and/or AST ≥3×ULN and <5×ULN, • ALT and/or AST ≥5×ULN and <8×ULN, • ALT and/or AST ≥3×ULN and concomitant (i.e., at the same time) total bilirubin ≥2×ULN. • ALT and/or AST 3×ULN and concomitant (i.e., at the same time) total bilirubin ≥2×ULN and increased as compared to baseline
# The highest ALT or AST value at any post-baseline time point of assessment for DB treatment-emergent (SS) and macitentan treatment-emergent (MTS) periods was considered in the evaluation of incidences.
# For the occurrence of post-baseline hemoglobin abnormalities, the following events were considered in the evaluation of incidences: • Hemoglobin ≤80 g/L, • Hemoglobin >80 and […], • Hemoglobin decrease from baseline ≥20 g/L and <50 g/L, • Hemoglobin decrease from baseline ≥50 g/L, • Hemoglobin <100 g/L and concurrent (i.e., at the same time) decrease from baseline ≥20 g/L.
# The lowest hemoglobin value at any post-baseline time point of assessment for DB treatment-emergent (SS) and macitentan treatment-emergent (MTS) periods was considered in the evaluation of incidences.
# [1] = DB phase, Safety set, 10 mg, N = 43, most extreme post-baseline value
# [2] = single macitentan-treated patient, DB phase
# [3] = single patient, DB+OL phase, malignant ascites and hepatic encephalopathy
smiles,measurement,setting,value
"CCCNS(=O)(=O)Nc1ncnc(OCCOc2ncc(Br)cn2)c1-c1ccc(Br)cc1 [macitentan, N-[5-(4-Bromophenyl)-6-[2-[(5-bromo-2-pyrimidinyl)oxy]ethoxy]-4-pyrimidinyl]-N′-propylsulfamide]",Patients with hemoglobin decreased to ≤80 g/L,DB phase,none
same,ALT or AST >= 5*ULN,[1],0/43
same,ALT or AST >= 5*ULN and <8*ULN,[1],0/43
same,ALT or AST >= 8*ULN,[1],0/43
same,Hemoglobin <= 80 g/L,[1],0/43
same,Patients with hemoglobin decreased to ≤100 g/L,"DB phase, macitentan group",3 patients
same,Patients with hemoglobin decreases of ≥20 g/L,"DB phase, macitentan group (12 patients)",27.9%
same,Patients with aminotransferase increase to >3×ULN,"DB phase, macitentan-treated",1 patient
same,ALT or AST >= 5*ULN and <8*ULN,"macitentan DB + OL phase, Macitentan treated set, N = 84",0/84
same,Patients with aminotransferase increase to >3×ULN,macitentan DB+OL phase,2 patients
same,Patients with hemoglobin decrease of ≥50 g/L,macitentan DB+OL phase,6 patients
same,Patients with hemoglobin decreased to ≤80 g/L,macitentan DB+OL phase,4 patients
same,Patients with hemoglobin decreased to ≤100 g/L,macitentan DB+OL phase,13 patients
same,Patients with hemoglobin decreases of ≥20 g/L,macitentan DB+OL phase (31 patients),37.3%
same,ALT in the patient with aminotransferase increase,[2],3.1 ×ULN
same,AST in the patient with aminotransferase increase,[2],3.2 ×ULN
same,Bilirubin in the patient with aminotransferase increase,[2],2.7 ×ULN
same,ALT in the additional patient with aminotransferase increase,[3],3.6 ×ULN
same,AST in the additional patient with aminotransferase increase,[3],8.6 ×ULN
same,Bilirubin in the additional patient with aminotransferase increase,[3],11.1 ×ULN
same,Macitentan-treated patients with Hy's Law range liver test abnormalities,whole study,2 patients
